Results as given in patent US8686150B2 (Sanofi, priority 2011, dated 2014).

These molecules were tested against T1, human full-length recombinant PKC βII (Homo sapiens, UniProt P05771) (assay: Determination of PKC βII inhibition (Caliper mobility-shift kinase assay, Fluorescein-RFARKGSLRQKNV peptide substrate)). Conditions: example compounds at a final concentration of 1.14 μM (±0.15 μM).
T1 construct: Active human full-length recombinant PKC βII; purchased Invitrogen GmbH, Darmstadt, Germany
Assay type: biochemical
How it was run: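 Compounds were tested at 1.14 μM final. Enzyme was activated by PS, DAG and CaCl2 in Hepes pH 7.4 with MgCl2, with substrate 3 μM and ATP 120 μM as pre-mix concentrations. After 60 min at 32 °C and an EDTA stop, Caliper separation gave fractional turnover, which was normalised to no-compound and no-enzyme controls.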

T1 sequence (P05771 1-673 isoform P05771-2): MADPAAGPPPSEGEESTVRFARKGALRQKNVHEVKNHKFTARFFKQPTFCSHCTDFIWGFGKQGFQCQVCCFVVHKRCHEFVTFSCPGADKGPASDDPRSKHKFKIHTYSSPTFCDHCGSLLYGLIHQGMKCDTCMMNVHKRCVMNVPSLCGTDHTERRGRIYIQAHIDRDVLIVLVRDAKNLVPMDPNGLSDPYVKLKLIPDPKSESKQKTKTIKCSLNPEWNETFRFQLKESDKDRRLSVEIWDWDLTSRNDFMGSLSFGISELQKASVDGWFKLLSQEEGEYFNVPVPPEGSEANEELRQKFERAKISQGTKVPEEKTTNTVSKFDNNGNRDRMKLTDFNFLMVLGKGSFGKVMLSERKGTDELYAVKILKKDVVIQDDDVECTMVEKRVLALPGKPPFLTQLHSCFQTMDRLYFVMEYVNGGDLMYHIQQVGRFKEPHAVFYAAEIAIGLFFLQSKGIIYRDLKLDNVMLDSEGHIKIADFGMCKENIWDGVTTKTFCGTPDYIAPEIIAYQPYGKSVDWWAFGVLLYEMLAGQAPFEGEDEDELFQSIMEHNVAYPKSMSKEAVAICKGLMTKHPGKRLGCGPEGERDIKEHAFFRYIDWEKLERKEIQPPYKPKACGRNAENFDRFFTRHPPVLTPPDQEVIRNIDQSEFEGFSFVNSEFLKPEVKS

inhibition at 1.14 µM [%] | SMILES
60 | NC1CCN(C(=O)c2cc(-c3ccc(O)cc3)nc3[nH]nc(C(F)(F)F)c23)CC1 [Example 399, (4-Amino-piperidin-1-yl)-[6-(4-hydroxy-phenyl)-3-trifluoromethyl-1H-pyrazolo[3,4-b]pyridin-4-yl]-methanone]
62 | O=C(c1cc(-c2ccc(O)cc2)nc2[nH]nc(C(F)(F)F)c12)N1CC2CNCC2C1 (stereo not shown) [Example 400, (Hexahydro-pyrrolo[3,4-c]pyrrol-2-yl)-[6-(4-hydroxy-phenyl)-3-trifluoromethyl-1H-pyrazolo[3,4-b]pyridin-4-yl]-methanone]
71 | C[C@@H]1CN(C(=O)c2cc(-c3ccc(O)cc3)nc3[nH]nc(C(F)(F)F)c23)CCN1 [Example 401, [6-(4-Hydroxy-phenyl)-3-trifluoromethyl-1H-pyrazolo[3,4-b]pyridin-4-yl]-((R)-3-methyl-piperazin-1-yl)-methanone]
41 | O=C(NC1CNC1)c1cc(-c2ccc(O)cc2)nc2[nH]nc(C(F)(F)F)c12 [Example 402, 6-(4-Hydroxy-phenyl)-3-trifluoromethyl-1H-pyrazolo[3,4-b]pyridine-4-carboxylic acid azetidin-3-ylamide]
55 | O=C(c1cc(-c2ccc(O)cc2)nc2[nH]nc(C(F)(F)F)c12)N1CC2(CCNCC2)C1 [Example 403, (2,7-Diaza-spiro[3.5]non-2-yl)-[6-(4-hydroxy-phenyl)-3-trifluoromethyl-1H-pyrazolo[3,4-b]pyridin-4-yl]-methanone]
31 | N[C@H]1CCN(C(=O)c2cc(-c3ccc(O)cc3)nc3[nH]nc(C(F)(F)F)c23)C1 [Example 404, ((S)-3-Amino-pyrrolidin-1-yl)-[6-(4-hydroxy-phenyl)-3-trifluoromethyl-1H-pyrazolo[3,4-b]pyridin-4-yl]-methanone]
48 | O=C(c1cc(-c2ccc(O)cc2)nc2[nH]nc(C(F)(F)F)c12)N1CCC2(CC1)CNC2 [Example 405, (2,7-Diaza-spiro[3.5]non-7-yl)-[6-(4-hydroxy-phenyl)-3-trifluoromethyl-1H-pyrazolo[3,4-b]pyridin-4-yl]-methanone]
47 | CNC1CCN(C(=O)c2cc(-c3ccc(O)cc3)nc3[nH]nc(C(F)(F)F)c23)C1 (stereo not shown) [Example 406, [6-(4-Hydroxy-phenyl)-3-trifluoromethyl-1H-pyrazolo[3,4-b]pyridin-4-yl]-(3-methylamino-pyrrolidin-1-yl)-methanone]
20 | O=C(c1cc(-c2ccc(O)cc2)nc2[nH]nc(C(F)(F)F)c12)N1CCC2(CCCNC2)C1 (stereo not shown) [Example 407, (2,7-Diaza-spiro[4.5]dec-2-yl)-[6-(4-hydroxy-phenyl)-3-trifluoromethyl-1H-pyrazolo[3,4-b]pyridin-4-yl]-methanone]
21 | O=C(c1cc(-c2ccc(O)cc2)nc2[nH]nc(C(F)(F)F)c12)N1CCC2CNCC21 (stereo not shown) [Example 408, (Hexahydro-pyrrolo[3,4-b]pyrrol-1-yl)-[6-(4-hydroxy-phenyl)-3-trifluoromethyl-1H-pyrazolo[3,4-b]pyridin-4-yl]-methanone]
23 | O=C(c1cc(-c2ccc(O)cc2)nc2[nH]nc(C(F)(F)F)c12)N1CCC2(CCNCC2)C1 [Example 409, (2,8-Diaza-spiro[4.5]dec-2-yl)-[6-(4-hydroxy-phenyl)-3-trifluoromethyl-1H-pyrazolo[3,4-b]pyridin-4-yl]-methanone]
20 | O=C(c1cc(-c2ccc(O)cc2)nc2[nH]nc(C(F)(F)F)c12)N1CCC2(CCNC2)CC1 [Example 410, (2,8-Diaza-spiro[4.5]dec-8-yl)-[6-(4-hydroxy-phenyl)-3-trifluoromethyl-1H-pyrazolo[3,4-b]pyridin-4-yl]-methanone]
24 | O=C(c1cc(-c2ccc(O)cc2)nc2[nH]nc(C(F)(F)F)c12)N1CCC2(CCNCC2)CC1 [Example 411, (3,9-Diaza-spiro[5.5]undec-3-yl)-[6-(4-hydroxy-phenyl)-3-trifluoromethyl-1H-pyrazolo[3,4-b]pyridin-4-yl]-methanone]
30 | CCN1CCCN(C(=O)c2cc(-c3ccc(O)cc3)nc3[nH]nc(C(F)(F)F)c23)CC1 [Example 414, (4-Ethyl-[1,4]diazepan-1-yl)-[6-(4-hydroxy-phenyl)-3-trifluoromethyl-1H-pyrazolo[3,4-b]pyridin-4-yl]-methanone]
90 | Cc1n[nH]c2nc(-c3ccc(O)cc3F)cc(C(=O)N3CCC(N)(c4ccccc4)CC3)c12 [Example 415, (4-Amino-4-phenyl-piperidin-1-yl)-[6-(2-fluoro-4-hydroxy-phenyl)-3-methyl-1H-pyrazolo[3,4-b]pyridin-4-yl]-methanone]
84 | CCC1(N)CCN(C(=O)c2cc(-c3ccc(O)cc3F)nc3[nH]nc(C)c23)CC1 [Example 416, (4-Amino-4-ethyl-piperidin-1-yl)-[6-(2-fluoro-4-hydroxy-phenyl)-3-methyl-1H-pyrazolo[3,4-b]pyridin-4-yl]-methanone]
30 | Cc1n[nH]c2nc(-c3ccc(O)cc3F)cc(C(=O)N3CCC(C)(N)CC3)c12 [Example 418, (4-Amino-4-methyl-piperidin-1-yl)-[6-(2-fluoro-4-hydroxy-phenyl)-3-methyl-1H-pyrazolo[3,4-b]pyridin-4-yl]-methanone]
79 | Cc1n[nH]c2nc(-c3ccc(O)cc3F)cc(C(=O)N3C[C@H]4CNC[C@H]4C3)c12 [Example 419, [6-(2-Fluoro-4-hydroxy-phenyl)-3-methyl-1H-pyrazolo[3,4-b]pyridin-4-yl]-(3aR,6aS)-hexahydro-pyrrolo[3,4-c]pyrrol-2-yl-methanone]
80 | CCC[C@@H]1CN(C(=O)c2cc(-c3ccc(O)cc3F)nc3[nH]nc(C)c23)CCN1 [Example 420, [6-(2-Fluoro-4-hydroxy-phenyl)-3-methyl-1H-pyrazolo[3,4-b]pyridin-4-yl]-((R)-3-propyl-piperazin-1-yl)-methanone]
51 | Cc1n[nH]c2nc(-c3ccc(O)cc3F)cc(C(=O)N3CCNC(c4ccccc4)C3)c12 (stereo not shown) [Example 421, [6-(2-Fluoro-4-hydroxy-phenyl)-3-methyl-1H-pyrazolo[3,4-b]pyridin-4-yl]-(3-phenyl-piperazin-1-yl)-methanone]
95 | CCC[C@H]1CN(C(=O)c2cc(-c3ccc(O)cc3F)nc3[nH]nc(C)c23)CCN1 [Example 422, [6-(2-Fluoro-4-hydroxy-phenyl)-3-methyl-1H-pyrazolo[3,4-b]pyridin-4-yl]-((S)-3-propyl-piperazin-1-yl)-methanone]
84 | Cc1n[nH]c2nc(-c3ccc(O)cc3F)cc(C(=O)N3CCNC(C4CC4)C3)c12 (stereo not shown) [Example 423, (3-Cyclopropyl-piperazin-1-yl)-[6-(2-fluoro-4-hydroxy-phenyl)-3-methyl-1H-pyrazolo[3,4-b]pyridin-4-yl]-methanone]
100 | Cc1n[nH]c2nc(-c3ccc(O)cc3F)cc(C(=O)N3CCN[C@@H](C)C3)c12 [Example 424, [6-(2-Fluoro-4-hydroxy-phenyl)-3-methyl-1H-pyrazolo[3,4-b]pyridin-4-yl]-((S)-3-methyl-piperazin-1-yl)-methanone]
88 | Cc1n[nH]c2nc(-c3ccc(O)cc3F)cc(C(=O)N3CCNC(C)(C)C3)c12 [Example 425, (3,3-Dimethyl-piperazin-1-yl)-[6-(2-fluoro-4-hydroxy-phenyl)-3-methyl-1H-pyrazolo[3,4-b]pyridin-4-yl]-methanone]
87 | Cc1n[nH]c2nc(-c3ccc(O)cc3F)cc(C(=O)N3CCN[C@H](C)C3)c12 [Example 426, [6-(2-Fluoro-4-hydroxy-phenyl)-3-methyl-1H-pyrazolo[3,4-b]pyridin-4-yl]-((R)-3-methyl-piperazin-1-yl)-methanone]
99 | Cc1n[nH]c2nc(-c3ccc(O)cc3F)cc(C(=O)N3CC(C)(C)NCC3C)c12 (stereo not shown) [Example 427, [6-(2-Fluoro-4-hydroxy-phenyl)-3-methyl-1H-pyrazolo[3,4-b]pyridin-4-yl]-(2,5,5-trimethyl-piperazin-1-yl)-methanone]
35 | Cc1n[nH]c2nc(-c3ccc(O)cc3F)cc(C(=O)N3C[C@@H](C)NC[C@H]3C)c12 [Example 428, ((2R,5R)-2,5-Dimethyl-piperazin-1-yl)-[6-(2-fluoro-4-hydroxy-phenyl)-3-methyl-1H-pyrazolo[3,4-b]pyridin-4-yl]-methanone]
98 | Cc1n[nH]c2nc(-c3ccc(O)cc3F)cc(C(=O)N3C[C@@H](C)NC[C@@H]3C)c12 [Example 429, ((2S,5R)-2,5-Dimethyl-piperazin-1-yl)-[6-(2-fluoro-4-hydroxy-phenyl)-3-methyl-1H-pyrazolo[3,4-b]pyridin-4-yl]-methanone]

SMILES | inhibition at 1.14 µM [%]
O=C(N[C@@H]1CN2CCC1CC2)c1cc(-c2ccc(O)cc2)nc2[nH]nc(C(F)(F)F)c12 [Example 412, 6-(4-Hydroxy-phenyl)-3-trifluoromethyl-1H-pyrazolo[3,4-b]pyridine-4-carboxylic acid [(S)-1-aza-bicyclo[2.2.2]oct-3-yl]-amide] | 23
O=C(N[C@H]1CN2CCC1CC2)c1cc(-c2ccc(O)cc2)nc2[nH]nc(C(F)(F)F)c12 [Example 413, 6-(4-Hydroxy-phenyl)-3-trifluoromethyl-1H-pyrazolo[3,4-b]pyridine-4-carboxylic acid [(R)-1-aza-bicyclo[2.2.2]oct-3-yl]-amide] | 29
Cc1n[nH]c2nc(-c3ccc(O)cc3F)cc(C(=O)N3[C@@H]4CC[C@H]3CNC4)c12 [Example 417, 3,8-Diaza-bicyclo[3.2.1]oct-8-yl-[6-(2-fluoro-4-hydroxy-phenyl)-3-methyl-1H-pyrazolo[3,4-b]pyridin-4-yl]-methanone] | 78
